From ChEMBL document CHEMBL5308541, “MAIP: An Open-Source Tool to Enrich High-Throughput Screening Output and Identify Novel, Druglike Molecules with Antimalarial Activity” (ACS Med Chem Lett, 2023)

Assays:
[1] = test system: Plasmodium falciparum; assay: Hit confirmation in dose-response curve in NF54 nanoGlo assay, at 72h; type: functional, organism-based, Erythrocyte; parameters: timepoint 72 hour; conditions: Plasmodium falciparum, NF54, Erythrocyte, 72 h
[2] = test system: Plasmodium falciparum; assay: Hit confirmation in dose-response curve in NF54 pLDH assay, at 72h; type: functional, organism-based, Erythrocyte; parameters: timepoint 72 hour; conditions: Plasmodium falciparum, NF54, Erythrocyte, 72 h
[3] = test system: Plasmodium falciparum; assay: Hit confirmation in dose-response curve in Dd2 pLDH assay, at 72h; type: functional, organism-based, Erythrocyte; parameters: timepoint 72 hour; conditions: Plasmodium falciparum, Dd2, Erythrocyte, 72 h
[4] = test system: Plasmodium falciparum; assay: Hit confirmation in dose-response curve in NF54 nanoGlo assay, at 12h; type: functional, organism-based, Erythrocyte; parameters: timepoint 12 hour; conditions: Plasmodium falciparum, NF54, Erythrocyte, 12 h
[5] = Hit confirmation in dose-response curve in HepG2 cytotoxicity assay, at 72h; type: toxicity, cell-based, Homo sapiens; parameters: timepoint 72 hour; conditions: human, HepG2 cells

| SMILES | IC50 [1] [nM] | IC50 [2] [µM] | IC50 [3] [µM] | IC50 [4] [µM] | IC50 at 72 h [5] [µM] |
| --- | --- | --- | --- | --- | --- |
| O=C(NCc1ccc(OC(F)(F)F)cc1)N(CCN1CCCC1)[C@H]1CCCNC1 | 4570 | 5.37 | 4.47 | > 10 | > 10 |
| CC(C)CCOc1ccc2[nH]c(-c3cc(N4CCC[C@@H]4CS(C)(=O)=O)ccn3)cc2c1 | 661 | 1.12 | 0.891 | 1.86 | > 10 |
| Nc1ccc(Nc2ccc(F)cc2)c2ccncc12 | 4370 | 7.41 | 4.37 | 7.41 | > 10 |
| COc1ccc2c(N3CC[C@H](CN4CCCC4)C3)ccnc2c1 | 525 | 0.589 | 0.417 | 0.794 | > 10 |
| Cc1cc(O)c(Cl)cc1-c1cccc2c(N)ccnc12 | 1170 | 1.48 | 2.04 | > 10 | > 10 |
| CCOc1ccc2nc(CN(CC)CC3CCN(C4CCN(C)CC4)CC3)ccc2c1 | 1950 | 2.45 | 2 | 3.55 | > 10 |
| COc1ccc(CNCc2cc3ccccc3[nH]2)cc1CN(C)C | 3390 | 3.47 | 2.29 | 5.89 | > 10 |
| OC1(c2ccc(Cl)cc2)CCN(C[C@@H]2CCCN3CCCC[C@H]23)CC1 | 3980 | 4.07 | 3.72 | 7.41 | > 10 |
| Cc1ccc2[nH]c(CNC[C@@H](CO)C3CCC3)cc2c1C | 2450 | 4.57 | 3.63 | 4.47 | > 10 |
| CC(CNc1nc(NCC(C)N2CCOCC2)c2cc(Cl)ccc2n1)N1CCOCC1 (stereo not given) | 1740 | 1.91 | 1.58 | > 10 | > 10 |
| CCN(Cc1cnn(-c2cccc(Cl)c2)c1)CC1CCN(C2CCN(C)CC2)CC1 | 1550 | 1.35 | 1.23 | 2.69 | > 10 |
| O[C@@]1(c2c[nH]nn2)CCN(c2ccnc3cc(Cl)ccc23)C1 | 2750 | 5.13 | 3.8 | 5.13 | > 10 |
| c1ccc(CN2CCC(CCNC[C@@H]3CCCN4CCCC[C@H]34)CC2)cc1 | 2340 | 2.57 | 1.78 | 7.24 | > 10 |
| Cc1ocnc1CNC[C@H](O)c1ccc(Cl)c(Cl)c1 | 2140 | 4.27 | 3.02 | 3.31 | > 10 |
| CCc1oc2ccccc2c1CNC[C@H](O)c1ccc(Cl)cc1 | 513 | 0.977 | 0.955 | 0.776 | > 10 |
| O=C1C2CCCCC2C(c2c(-c3ccccc3)[nH]c3ccccc23)N1Cc1ccccc1 (stereo not given) | > 10000 | > 10 | > 10 | > 10 | > 10 |
| CNc1nc(C)c(-c2ccnc(Nc3cccc(S(C)(=O)=O)c3)n2)s1 | 2820 | > 10 | 6.46 | > 10 | 0.78 |
| COc1cc2nc(-c3ccc(F)c4cccnc34)nc(N)c2cc1OC | 912 | 1.1 | 1.12 | 1.55 | 1.02 |
| CCc1ccc2ncnc(NCCCN3CCN(CCO)CC3)c2c1 | 5620 | 6.31 | 5.75 | 9.77 | > 10 |

| SMILES | IC50 [1] [nM] | IC50 [2] [µM] | IC50 [3] [µM] | IC50 [4] [µM] | IC50 at 72 h [5] [µM] |
| --- | --- | --- | --- | --- | --- |
| Cn1nnc(C(=O)N2CCCCC23CCCCCC3)n1 | 2240 | 5.5 | 2.29 | > 10 | > 10 |
| Oc1cccc2c1CCC[C@@H]2NCc1ccc2occc2c1 | 4070 | 9.33 | 8.51 | 4.57 | > 10 |
| COC(=O)c1cn(CCNc2ccnc3cc(Cl)ccc23)cc2c(O)nnc1-2 | 603 | 1.29 | 0.955 | 3.09 | > 10 |
| Brc1cccc(NCCNC2CCN(Cc3cccnc3)CC2)c1 | 3800 | 3.8 | 3.72 | 8.51 | > 10 |
| COc1ccc2cc(-c3cc(N)ccn3)[nH]c2c1 | 2880 | 4.57 | 4.17 | 6.03 | > 10 |
| NC(=O)[C@]1(O)CCN(c2ccnc3ccc(Oc4ccccc4)cc23)C1 | 3310 | 3.8 | 3.24 | 7.76 | > 10 |
| Clc1ccc2[nH]c3c(c2c1)CCCC3NC1CCN(C2CCOC2)CC1 (stereo not given) | 1820 | 2.75 | 2.63 | 3.8 | 10 |
| Cc1cnccc1NCCNCc1cnc(N2CCCCC2)nc1 | 2510 | 3.39 | 2.14 | > 10 | > 10 |
| CCOc1cccc(N2CCN(C(=O)c3cc(-c4ccc(F)cc4)[nH]n3)CC2)n1 | 5010 | > 10 | > 10 | 2.95 | > 10 |
| CNc1nc(N[C@H]2CCCN(Cc3ccc(Cl)cc3)C2)nc2c1CCC2 | 2450 | 2.63 | 2.29 | > 10 | > 10 |
| Fc1ccc(N2CC[C@H](CN3CCC(c4c[nH]c5ccccc45)(c4c[nH]c5ccccc45)CC3)C2)cc1 | 1910 | 6.61 | 4.27 | 2.51 | > 10 |
| COCCN1CC[C@H](CN(C)c2ccnc3cc(Cl)ccc23)C1 | 1380 | 1.51 | 1.45 | 1.82 | > 10 |
| COc1ccc2c(C)cc(NCCCN3CCC[C@H](C(N)=O)C3)nc2c1 | 2190 | 2.69 | 3.02 | 6.76 | > 10 |
| Cc1cc(N2CCC(NC3CCCC3Cc3ccc(F)cc3)CC2)nc(N)n1 (stereo not given) | 912 | 1.1 | 1.1 | 3.02 | 4.68 |
| Cc1ccc2nc(CCCNC3CCN(c4cc(C)nc(N)n4)CC3)oc2c1 | 3890 | 3.31 | 3.47 | 8.91 | > 10 |
| O[C@@H](CNCc1cc2cc(Cl)c(Cl)cc2[nH]1)c1ccc(F)cc1 | 2340 | 8.51 | 3.39 | 5.01 | > 10 |
| CN1CCC(N2CCC(NC(=O)c3ccc(S(=O)(=O)N(C)C4CCCCC4)cc3)CC2)CC1 | 4270 | 5.89 | 3.89 | 9.33 | > 10 |
| Cn1cncc1[C@@H]1CNC[C@H]1CNC(=O)c1ccccc1NC1CCCCC1 | 3890 | 6.76 | 4.17 | 8.13 | > 10 |
| CCCC(=O)NC1COCC1Cc1ccncc1 (stereo not given) | 6310 | > 10 | > 10 | 8.91 | > 10 |
